Assay results from patent publication US11052043B2, “Sustained-release injectable formulation” (YISSUM RESEARCH DEVELOPMENT COMPANY OF THE HEBREW …, priority 2011, dated 2021).
Values after ≈ are worked out from the molar mass of the structure shown.

Tests used:
[1] = cited from earlier work
[2] = Minimum inhibitory concentration (MIC) of amoxicillin; assay type: cell-based; conditions: in vitro MIC multiplied by a factor of 4
[3] = cited from earlier work; remark: listed apart in the source

CC1(C)S[C@@H]2[C@H](NC(=O)[C@H](N)c3ccc(O)cc3)C(=O)N2[C@H]1C(=O)O [amoxicillin]
MIC value determined in vitro [1]: 0.1 mg/L (≈ 0.274 µM) | in vivo minimum inhibitory concentration (MIC) as set [2]: 0.4 mg/L

C=CC1=C(C(=O)O)N2C(=O)[C@@H](NC(=O)/C(=N\O)c3csc(N)n3)[C@H]2SC1 [cefdinir]
solubility of cefdinir ([3]; 30° C.): 0.43 % (w/v)

CCN1CCN(c2cc3c(cc2F)c(=O)c(C(=O)O)cn3C2CC2)CC1 [enrofloxacin]
solubility of enrofloxacin ([3]; 25° C.): 0.25 % (w/v)
